Measured values published in US6147097A, “Imidazole derivatives as anti-HIV agents” (Shionogi & Co., Ltd., priority 1994, dated 2000).
≈ marks a conversion by molar mass, not a printed value. Like-named read-outs stand apart in the source and are kept apart here.

Tests used:
[1] = test system: HIV (HTLV-IIIB strain); assay: microbe, parasite or virus in culture; format: cell-based
Description: The anti-HIV activity of each of the compounds produced in Examples was assayed by the following procedures. […] On the other hand, the test compound was diluted with the above culture medium to predetermined concentrations and distributed in 50 μl aliquots into a 96-well microtiter plate. Then, d suspension of MT-4 cells was added in 100 μl aliquots (3.5×10^4 cells per well) and then the above HIV-containing supernatant diluted with the above culture medium was added, 50 μl (60 pfu (plaque forming units)) per well. (2) The plate was incubated in a CO2 incubator at 37° C. for 5 days. Then, 30 μl/well of 3-(4,5-dimethyl thiazol-2-yl)-2,5-diphenyltetrazolium bromide (MTT) (5 mg/ml PBS) was added and the incubation was further continued for 1 hour. The surviving cells reducing MTT yield precipitation of formazan. Therefore, 150 μl portions of the culture supernatant were removed from all wells and, instead, 150 μl of a solution (10% Triton X-100 and 0.4% (v/v) HCl-added isopropyl alcohol) was added. The plate was shaken on a plate mixer to dissolve the formazan.

[2] = cytotoxicity in MT-4 cells (MTT, culture medium in place of HIV); format: cell-based; conditions: human
Description: The anti-HIV activity of each of the compounds produced in Examples was assayed by the following procedures. (1) Human T cell line MOLT-4 clone 8 persistently infected by HIV (HTLV-IIIB strain) was cultured in an RPMI-1640 medium supplemented with 10% fetal calf serum, the culture supernatant was filtered, and the titer of virus was determined; the culture supernatant was stored at -80° C. On the other hand, the test compound was diluted with the above culture medium to predetermined concentrations and distributed in 50 μl aliquots into a 96-well microtiter plate. Then, d suspension of MT-4 cells was added in 100 μl aliquots (3.5×10^4 cells per well) and then the above HIV-containing supernatant diluted with the above culture medium was added, 50 μl (60 pfu (plaque forming units)) per well. (2) The plate was incubated in a CO2 incubator at 37° C. for 5 days. Then, 30 μl/well of 3-(4,5-dimethyl thiazol-2-yl)-2,5-diphenyltetrazolium bromide (MTT) (5 mg/ml PBS) was added and the incubation was further continued for 1 hour. The surviving cells reducing MTT yield precipitation of formazan. Therefore, 150 μl portions of the culture supernatant were removed from all wells and, instead, 150 μl of a solution (10% Triton X-100 and 0.4% (v/v) HCl-added isopropyl alcohol) was added. The plate was shaken on a plate mixer to dissolve the formazan. The OD of formazan was measured with a microreader at 560 nm arid 690 nm (reference wavelength) and the result was compared with that of control.
The cytotoxicity of each of the compounds produced in Examples was assayed. In place of the HIV-containing supernatant (the virus suspension) in (1) in Test Example 1, 50 μl of the culture medium was added to each well, and the cytotoxicity was determined in the same manner as that for (2) in Test Example 1.

[3] = molecular target: T1, purified recombinant HIV-1 reverse transcriptase (Human immunodeficiency virus type 1 group M subtype B, UniProt P04585); assay: reverse transcriptase inhibition, poly(rA)/(dT) template primer, [3H]dTTP uptake; format: biochemical
T1 construct: purified recombinant HIV-1 reverse transcriptase; made in house; host or cells: Escherichia coli
Description: The reverse transcriptase activity of each of the compounds synthesized in Examples was assayed by the following procedures.
Using the purified recombinant HIV-1 reverse transcriptase RT, E.C. 2.7.7.49) obtained by expression in Escherichia Coli, a 96-well plate assay system was established for assaying a large number of samples. The RT inhibitory activity was determined as follows. To 11 μl of a solution of the test inhibitor in water or MSO was added 100 μl of a reaction mixture (0.1 unit/100 μl RT, 50 mM Tris-HCl pH 8.3, 150 mM KCl, 10 mM MgCl2, 3 mM dithiothreitol, 0.1% Nonidet P-40, 10 μg/ml. poly(rA) and 10 μg/ml (dT)12-1.8 as template and primer, and 4 μM dTTP, 1 μCi/100 μl [^3 H]dTTP as substrate) and the mixture was incubated at 37° C. for 1 hour and, then, immediately cooled on ice. Using a cell harvester, the reaction mixture was transferred to a DEAE-filter mat (LKB-Pharmacia). Then, using the wash line of the cell harvester, the cells were washed twice with 5% Na2 HPO4 /H2 O and once with water and dried at 95° C. for 15 minutes. […] The inhibitory activity was expressed in percent inhibition relative to the uptake on water or DMSO control.

[4] = Human immunodeficiency virus 1, IIIB, MT4, 120 h, MT-4 cells, 60 pfu HIV per well, 37° C., 5 days, MTT, Tables 1 and 2, read-out: EC50
[5] = MT-4 cells, no virus, 37° C., 5 days, MTT, Table 3, read-out: CC50
[6] = Human immunodeficiency virus 1, IIIB, MT4, 120 h

| Compound | EC50 [1, 4] | CC50 at 120 h [2, 5] | IC50 [3] | CC50 at 120 h ([2]; mt-4 cells) | EC50 [1, 6] | EC50 ([1]; MT-4 cells, 60 pfu HIV per well, 37° C., 5 days, MTT, Tables 1 and 2) | RT IC50 ([3]; pH 8.3, 37° C., 1 hour, Tables 5 and 6) |
| --- | --- | --- | --- | --- | --- | --- | --- |
| CC(=O)OCc1nc(C(C)C)c(Sc2cc(Cl)cc(Cl)c2)n1C [Compound I-40, [5-(3,5-dichlorophenylthio)-4-isopropyl-1-methyl-1H-imidazol-2-yl]methyl acetate] | 0.016 µg/mL | 12.5 to 25 µg/mL | 28.7 µM |  |  |  |  |
| CC(C)c1nc(CO)n(C)c1Sc1cccc(Cl)c1 [Compound I-13, [5-(3-chlorophenylthio)-4-isopropyl-1-methyl-1H-imidazol-2-yl]methanol] | 0.06 µg/mL (≈ 0.202 µM) | 25 µg/mL (≈ 84.2 µM) | 2.7 µM |  |  |  |  |
| COC(=O)NCc1nc(C(C)C)c(Sc2cc(Cl)cc(Cl)c2)n1C [Compound I-91, 5-(3,5-dichlorophenylthio)-4-isopropyl-1-methyl-2-methoxycarbonylaminomethyl-1H-imidazole] | 0.06 µg/mL (≈ 0.155 µM) | 6.3 to 12.5 µg/mL (≈ 16.2 to 32.2 µM) | 0.876 µM |  |  |  |  |
| CC(C)c1nc(CO)n(CCCCc2ccccc2)c1Sc1cc(Cl)cc(Cl)c1 [Compound I-123, 5-(3,5-dichlorophenylthio)-2-hydroxymethyl-4-isopropyl-1-(4-phenylbutyl)-1H-imidazole] | 0.06 µg/mL (≈ 0.133 µM) |  | 77.4 µM | 12.5 µg/mL (≈ 27.8 µM) |  |  |  |
| CCn1c(CN)nc(C(C)C)c1Sc1cccc(Cl)c1 [Compound I-73, 2-aminomethyl-5-(3-chlorophenylthio)-1-ethyl-4-isopropylimidazole] | 0.016 µg/mL (≈ 0.0516 µM) |  | 0.807 µM | 6.3 µg/mL (≈ 20.3 µM) |  |  |  |
| CC(C)c1nc(C=O)n(C)c1Sc1cc(Cl)cc(Cl)c1 [Compound I-7, 5-(3,5-dichlorophenylthio)-4-isopropyl-1-methyl-1H-imidazole-2-carbaldehyde] | 0.13 µg/mL (≈ 0.395 µM) | 10 to 100 µg/mL (≈ 30.4 to 304 µM) | 131 µM |  |  |  |  |
| CC(C)c1nc(COC(N)=O)n(CF)c1Sc1cc(Cl)cc(Cl)c1 [Compound I-56, 2-carbamoyloxymethyl-5-(3,5-dichlorophenylthio)-1-fluoromethyl-4-isopropyl-1H-imidazole] |  | 10 to 100 µg/mL (≈ 25.5 to 255 µM) | 2.37 µM |  | 0.008 µg/mL (≈ 0.0204 µM) |  |  |
| CC(C)c1nc(CN)n(CC(F)(F)F)c1Sc1cc(Cl)cc(Cl)c1 [Compound I-76, 2-aminomethyl-5-(3,5-dichlorophenylthio)-4-isopropyl-1-(2,2,2-trifluoroethyl)-1H-imidazole] | 0.016 µg/mL (≈ 0.0402 µM) | 6.3 to 12.5 µg/mL (≈ 15.8 to 31.4 µM) | 8.79 µM |  |  |  |  |
| CCOC(=O)Cn1c(CCOCc2ccccc2)nc(C(C)C)c1Sc1cc(Cl)cc(Cl)c1 [Compound 130c] | 0.5 µg/mL (≈ 0.985 µM) |  | > 197 µM | 12.5 µg/mL (≈ 24.6 µM) |  |  |  |
| CC(C)c1nc(CCOCc2ccccc2)n(CCO)c1Sc1cc(Cl)cc(Cl)c1 [Compound 130d, 2-(2-(2-benzyloxyethyl)-5-(3,5-dichlorophenylthio)-4-isopropyl-1H-imidazol-1-yl)ethanol] | 0.5 to 1 µg/mL (≈ 1.07 to 2.15 µM) |  | > 215 µM | 6.3 µg/mL (≈ 13.5 µM) |  |  |  |
| CCn1c(COC(N)=O)nc(C(C)C)c1Sc1cccc(Cl)c1 [Compound I-53, 2-carbamoyloxymethyl-5-(3-chlorophenylthio)-1-ethyl-4-isopropyl-1H-imidazole] |  | 10 to 100 µg/mL (≈ 28.3 to 283 µM) | 0.593 µM |  | 0.004 to 0.008 µg/mL (≈ 0.0113 to 0.0226 µM) |  |  |
| CC(C)c1nc(CO)n(C)c1Sc1cc(Cl)cc(Cl)c1 [Compound I-8, [5-(3,5-dichlorophenylthio)-4-isopropyl-1-methyl-1H-imidazol-2-yl]methanol] | 0.016 µg/mL (≈ 0.0483 µM) | 12.5 µg/mL (≈ 37.7 µM) | 3.02 µM |  |  |  |  |
| CCc1nc(C)n(C)c1Sc1cc(C)cc(C)c1 [Compound I-5, 1,2-dimethyl-5-(3,5-dimethylphenylthio)-4-ethylimidazole] | 0.06 µg/mL (≈ 0.23 µM) | 1 to 10 µg/mL (≈ 3.84 to 38.4 µM) | 8.83 µM |  |  |  |  |
| CC(C)c1nc(COC(N)=O)n(CC(F)(F)F)c1Sc1cc(Cl)cc(Cl)c1 [Compound I-55, 2-carbamoyloxymethyl-5-(3,5-dichlorophenylthio)-4-isopropyl-1-(1,1,1-trifluoroethyl)-1H-imidazole] | 0.008 µg/mL (≈ 0.0181 µM) | 10 to 100 µg/mL (≈ 22.6 to 226 µM) | 5.65 µM |  |  |  |  |
| CC(C)c1nc(CCOC(N)=O)n(CCOC(N)=O)c1Sc1cc(Cl)cc(Cl)c1 [Compound I-147, 1,2-di-(2-carbamoyloxyethyl)-5-(3,5-dichlorophenylthio)-4-isopropyl-1H-imidazole] | 0.005 µg/mL (≈ 0.0108 µM) |  | 4.33 µM | 50 to 100 µg/mL (≈ 108 to 217 µM) |  |  |  |
| CC(C)c1nc(CO)n(CC(F)(F)F)c1Sc1cc(Cl)cc(Cl)c1 [Compound I-33, 2-[5-(3,5-dichlorophenylthio)-4-isopropyl-1-(1,1,1-trifluoroethyl)-1H-imidazol-2-yl]methanol] | 0.016 µg/mL (≈ 0.0401 µM) | 10 to 100 µg/mL (≈ 25 to 250 µM) | 9.77 µM |  |  |  |  |
| CC(C)c1nc(CN=C(N)N)n(C)c1Sc1cc(Cl)cc(Cl)c1 [Compound I-86, 2-diaminomethylenemethylaminomethyl-5-(3,5-dichlorophenylthio)-4-isopropyl-1-methylimidazole] | 1 µg/mL (≈ 2.69 µM) |  | 33.6 µM | 1 µg/mL (≈ 2.69 µM) |  |  |  |
| Cc1ncccc1Cn1c(CO)nc(C(C)C)c1Sc1cc(Cl)cc(Cl)c1 [Compound 119a, 5-(3,5-dichlorophenylthio)-2-hydroxymethyl-4-isopropyl-1-(2-methylpyridin-3-ylmethyl)-1H-imidazole] | < 0.008 µg/mL |  | 14.7 µM | 12.5 µg/mL (≈ 29.6 µM) |  |  |  |
| CNC(=S)OCc1nc(C(C)C)c(Sc2cc(Cl)cc(Cl)c2)n1C [Compound I-44, 5-(3,5-dichlorophenylthio)-4-isopropyl-1-methyl-2-(N-methylthiocarbamoyl)oxymethyl-1H-imidazole] | 1 µg/mL (≈ 2.47 µM) | 1 to 10 µg/mL (≈ 2.47 to 24.7 µM) | 107 µM |  |  |  |  |
| CC(C)C(=O)c1nc(C(C)C)c(Sc2cc(Cl)cc(Cl)c2)n1C [Compound I-12, [5-(3,5-dichlorophenylthio)-4-isopropyl-1-methyl-1H-imidazol-2-yl] isopropyl ketone] | 50 µg/mL (≈ 135 µM) | 50 to 100 µg/mL (≈ 135 to 269 µM) | > 269 µM |  |  |  |  |
| CCn1c(COC(N)=O)nc(C(C)C)c1Sc1cc(Cl)cc(Cl)c1 [Compound I-52, 2-carbamoyloxymethyl-5-(3,5-dichlorophenylthio)-1-ethyl-4-isopropyl-1H-imidazole] |  | 10 µg/mL (≈ 25.8 µM) | 0.464 µM |  | 0.003 µg/mL (≈ 0.00773 µM) |  |  |
| CC(C)c1nc(CCO)n(Cc2ccc([N+](=O)[O-])cc2)c1Sc1cc(Cl)cc(Cl)c1 [Compound 126a, 5-(3,5-dichlorophenylthio)-2-(2-hydroxyethyl)-4-isopropyl-1-p-nitrobenzyl-1H-imidazole] | 0.008 µg/mL (≈ 0.0172 µM) |  | 2.59 µM | 6.3 µg/mL (≈ 13.5 µM) |  |  |  |
| CC(C)c1nc(CO)n(C)c1Cc1cccc(Cl)c1 [Compound I-102, [5-(3-chlorobezyl)-4-isopropyl-1-methyl-1H-imidazol-2-yl]methanol] | 0.5 to 1 µg/mL (≈ 1.79 to 3.59 µM) | 1 to 10 µg/mL (≈ 3.59 to 35.9 µM) | 86.4 µM |  |  |  |  |
| 2-aminoethyl-1-n-butyl-5-(3,5-dichlorophenylthio)-4-isopropyl-1H-imidazole [Compound I-68] |  |  |  |  |  | 0.016 µg/mL | 0.61 µg/mL |
